Reference: patent publication US8771733B2, “Pharmaceutical composition containing an anti-nucleating agent” (Merck Sharp & Dohme Corp., priority 2004, dated 2014)
Where a name gives a salt, the structure may show the parent alone.

Key:
[1] = In vitro dissolution studies with bulk drug and granules at 37° C.; type: physicochemical; settings: dissolution times of 60 to 180 minutes
Description: The dissolution properties of tablets prepared in the manner described in Part A of Example 3 (i.e., tablets containing 100 mg of Compound A on a free phenol basis and 0, 5, 10 or 15 wt. % HPMC) were tested in the following manner: Two tablets containing 0, 5, 10, or 15 wt. % HPMC were added to a USP Type II dissolution vessel containing 500 mL of 0.01 N HCl (pH=2) as the dissolution medium (ambient temperature). After the tablets were allowed to sink to the bottom of the vessel, the medium was stirred at 100 rpm for 60 minutes and then at 150 rpm for up to an additional 120 minutes. Samples (5 mL) were removed from medium at 5, 10, 15, 20, 30, 60, 90 and 120 minutes and at the conclusion of the test (180 minutes). Each sample was diluted 1:1 with 50:50 (volume:volume) acetonitrile:water, and then analyzed via HPLC or W spectrophotometry to determine the concentration of Compound A in the solution. (Note: The HPLC and UV methods were determined to be equivalent; the choice of method for a particular test was based on such factors as equipment availability.)
In vitro dissolution studies similar to the study described above, but conducted with unformulated bulk Compound A K salt and formulated bulk in granules and conducted at 37° C.

[2] = Hygroscopicity (vapor sorption analysis); type: physicochemical
Description: Hygroscopicity data was obtained on a VTI Symmetrical Vapor Sorption Analyzer Model SGA-1. Data was collected at room temperature from 5-95% relative humidity and back, 5% relative humidity change per step. Equilibrium conditions were 0.01 weight percent change in 5 minutes with a maximum equilibration time of 180 minutes.

In the case of `Cc1nnc(C(=O)NC(C)(C)c2nc(C(=O)NCc3ccc(F)cc3)c(O)c(=O)n2C)o1` [Compound A K salt], the “enhancement in drug solubility in the presence of HPMC versus absence of HPMC” value [1] is reported as 10 fold, the “weight when equilibrated back down to 5% RH” value ([2]; 5% RH, after 95% RH) is reported as “returned back to approximately its dry weight” and the “weight increase when equilibrated at 95% RH” value ([2]; 95% RH at 25° C.) is reported as 1.8%. For the same molecule, the “XRPD analysis of the material after the hygroscopicity experiment (phase)” value ([2]; after 5-95% RH and back) was “had not changed phases”.
